Assay results: PMC4992173, “Divergent synthesis and identification of the cellular targets of deoxyelephantopins” (Nature Communications, 2016)

Test system: proteins enriched from MCF7 cells by probe 24c
Experiment: SILAC competitive profiling with probe 24c in MCF7 lysates, proteome-wide
Type: binding, human
Conditions: 20 μM deoxyelephantopin, 10 μM 24c, SILAC ratio<0.30
Source text: In our efforts to determine the direct molecular targets of deoxyelephantopin we first performed a gel-based competitive in situ proteomic profiling assay[41] […] While the greater conformational flexibility of probe 24c could potentially lead to more promiscuous target engagement relatively to deoxyelephantopin, it was favoured based on the fact that an alkyne moiety appended to the rigid scaffold of deoxyelephantopin may hinder some of its interactions. MCF7 cells were pretreated with various concentrations of deoxyelephantopin for 4 h, harvested, lysed and the lysates were treated with the fluorogenic probe 24c-Cy3 (10 μM; Supplementary Fig. 10). […] Furthermore, cells were pretreated with 20 μM concentration of deoxyelephantopin or 24c and the proteomic profiles were compared (Fig. 6b, Supplementary Fig. 11). Multiple bands were detected that were equally competed by both DEP and 24c, thus again confirming that 24c can be used as an acceptable clickable analogue of deoxyelephantopin in pulldown assays. Having established the optimal labelling conditions by SDS–PAGE, we next carried out a mass spectrometry-based competitive profiling assay[42] coupled with the method of stable isotope labelling of amino acids in culture (SILAC)[43]. […]
visualization were performed as described above. Images were quantified with ImageJ and kinetics values were calculated using GraphPad Prism (V6.03). […]

C=C(C)C(=O)O[C@H]1CC2=C[C@@H](C/C(C)=C/[C@H]3OC(=O)C(=C)[C@H]13)OC2=O [deoxyelephantopin]
competition of probe 24c labelling (11 proteins): > 70%
